The values that follow come from patent US20250313642A1, “METHODS OF TREATING ACUTE AND CHRONIC GRAFT VERSUS HOST DISEASE” (Forte Subsidiary, Inc., priority 2022, published 2025).

The subject of test [1] is xenograft GvHD mouse model (NCG-hIL-15 mice transplanted with human PBMCs). Briefly: Xenograft acute GvHD mouse model, single vs combination therapy, survival. Particulars: Day 18; treatment D5-D18; ruxolitinib 60 mpk PO twice-daily; Antibody 1 75 mpk IP once-daily; n=10. The class given is in vivo.
Description: A xenograft GvHD mouse model was utilized to study human T and NK cell-mediated aGvHD and the therapeutic effects of anti-CD122 antibody treatment in single or combination therapy approaches. Female NCG-hIL-15 mice were irradiated at a dosage of 100 cGy on Day 1 of the protocol and human peripheral blood mononuclear cells (PBMCs) were transplanted via injection at a dosage of 1×10^7 cells/200 μL/mice via IV administration into the irradiated mice according to the same xenograft GvHD mouse model design as in Example 4.
Treatment according to 3 different grouping of animals was begun on Day 5 following transplant, as shown in the study design of FIG. 4. Groups of 10 mice were used for each test category. A single treatment group, Group #1, (n=10) received ruxolitinib (at a dosage of 60 mpk) twice-daily by oral administration (PO) beginning on Day 5 and ending on Day 18. Days of treatment were D5, D6, D7, D8, D9, D10, D11, D12, D13, D14, D15, D16, D17, and D18. A combination therapy group. Group #2. (n=10) received ruxolitinib (at a dosage of 60 mpk) twice-daily by oral administration beginning on Day 5 and ending on Day 18. […]
Day 18 was the end of study day for all treatment groups. Animals from all treatment groups were assessed daily beginning on Day 1 and ending on Day 18 for survival following transplant. […]
The subject of test [2] is allogeneic model of chronic GvHD (BALB/c mice). In words: Allogeneic chronic GvHD mouse model (B10.D2 donor into BALB/c host), GvHD score. Type of test: in vivo. Particulars: Antibody 3 100 mpk IP Q.O.D., Ruxolitinib 60 mpk PO b.i.d. The text has this:
An allogeneic model of chronic GvHD according to the animal model design of Ramos et al (Ramos T L et al. Delayed administration of ixazomib modifies the immune response and prevents chronic graft-versus-host disease. Bone Marrow Transplant. 2021 December;56(12):3049-3058) was investigated. In this model as shown in the study design of FIG. 6. B10.D2 mice serve as donor for bone marrow and splenocytes to be transplanted into irradiated BALB/c host mice. […] In this model of cGvHD, there is a low mortality rate extending past 150 days post-transplant and cGvHD symptoms can typically appear starting at approximately 30 days post-transplant. Study design includes treatment start at Day 30 post-transplant and end of study is marked at Day 60 post-transplant. […] Two test treatment groups included Group 2) Antibody 3 anti-CD122 antibody therapy (100 mpk delivered IP every other day (Q.O.D.), and Group 3) ruxolitinib monotherapy (60 mpk PO b.i.d). One negative control group (Group 1) including vehicle (IP Q.O.D.)+vehicle (PO b.i.d.) was also tested. Phenotypic cGvHD score and survival were assessed starting at Day 30 and ending at Day 60 post-transplant.
• BALB/c mice were randomized into treatment groups based on Day 1 bodyweight. • Female BALB/c mice were irradiated (5 Gy) and intravenously injected with B10.D2 donor cells on Day 1. • Cell injection volume was about 200 μL of Bone Marrow cells and splenocytes mixture as described below in treatments. Total cell volume injection=200 μL in PBS. • GvHD Scoring and body weight measurement assessed on Day 30, 33, 35, 37, 39, 41, 43, 45, 48, 51, 53, 56, 58, and 60. • Individual scores according to the grading system below of Grade 0, 1, or 2 were measured and documented on each assessed day for each criterion of body weight loss, activity, posture, fur texture, and skin integrity for each subject in each test group. Each criterion was then summed per subject to yield a total GvHD score by subject per assessed day (e.g., add score for bodyweight loss, activity, posture, fur texture, and skin integrity to yield total GvHD score). • Total GvHD scores per animal per day were then averaged per group to yield average GvHD score per test group and the standard error of the mean (SEM) for each group was determined.

`N#CC[C@H](C1CCCC1)n1cc(-c2ncnc3[nH]ccc23)cn1` [ruxolitinib]: the “survival rate at the end of the study” value in test [1] worked out at 30%. Moreover, the “Average total GvHD score (mean)” value in test [2] (D 30 post-transplant) turned out to be 0.6; in test [2] (D 33 post-transplant) it was 0.6; in test [2] (D 35 post-transplant), 0.7; in test [2] (D 39 post-transplant), 1.2; in test [2] (D 43 post-transplant) it was 1.1; in test [2] (D 45 post-transplant), 1.2. Also, the “Average total GvHD score (mean)” value is 1.2 in test [2] (D 48 post-transplant), 1.2 in test [2] (D 51 post-transplant), 1.4 in test [2] (D 56 post-transplant) and 1.7 in test [2] (D 60 post-transplant).
